Data on 1 compound can be found in article PMC3993903 (Molecular pharmaceutics, 2014).

Holding throughout (type): cell-based, human
Series [1] deals with KB-3-1 cells. The series is described as follows: Cytotoxicity. The settings on record: 2 h treatment with 5 or 15 µM, further 46 h in drug-free medium, SRB, mean ± s.d. n = 3.
For series [2], the system named is drug-resistant cervical cancer cells KB-V1. Briefly: Cellular uptake by KB-V1 cells. The conditions noted are these: 5 µM, absence or presence of equal molar C8-Tat (5 µM), flow cytometry. A general note: In flow cytometry, cells or beads pass a laser one at a time.
The test system of series [3] is KB-V1 cells. The series is described as follows: Cytotoxicity. The conditions noted are these: 2 h treatment with 5 or 15 µM, further 46 h in drug-free medium, SRB, mean ± s.d. n = 3.

On to `COc1cccc2c1C(=O)c1c(O)c3c(c(O)c1C2=O)C[C@@](O)(C(=O)CO)C[C@@H]3O[C@H]1C[C@H](N)[C@H](O)[C@H](C)O1` [Dox, doxorubicin], for which the “short-term cytotoxicity (cell viability)” value in series [1] is listed as “toxicity toward drug-sensitive cells”; in series [3] it was “not on drug-resistant cells”. Besides, in series [2], the “intracellular accumulation with or without C8-Tat treatment” value was “almost identical”.
